# In ChEMBL document CHEMBL3352108, “Structure-activity relationships of the thujaplicins for inhibition of human tyrosinase” (Bioorg Med Chem, 2014):
# The source made the active and inactive calls. The calls are words filed in the database; no cut-off is given here.
# How the values were obtained:
# Tyrosinase [1] = target: T1, Tyrosinase (Agaricus bisporus, UniProt O42713)
# T1 sequence (O42713 whole entry): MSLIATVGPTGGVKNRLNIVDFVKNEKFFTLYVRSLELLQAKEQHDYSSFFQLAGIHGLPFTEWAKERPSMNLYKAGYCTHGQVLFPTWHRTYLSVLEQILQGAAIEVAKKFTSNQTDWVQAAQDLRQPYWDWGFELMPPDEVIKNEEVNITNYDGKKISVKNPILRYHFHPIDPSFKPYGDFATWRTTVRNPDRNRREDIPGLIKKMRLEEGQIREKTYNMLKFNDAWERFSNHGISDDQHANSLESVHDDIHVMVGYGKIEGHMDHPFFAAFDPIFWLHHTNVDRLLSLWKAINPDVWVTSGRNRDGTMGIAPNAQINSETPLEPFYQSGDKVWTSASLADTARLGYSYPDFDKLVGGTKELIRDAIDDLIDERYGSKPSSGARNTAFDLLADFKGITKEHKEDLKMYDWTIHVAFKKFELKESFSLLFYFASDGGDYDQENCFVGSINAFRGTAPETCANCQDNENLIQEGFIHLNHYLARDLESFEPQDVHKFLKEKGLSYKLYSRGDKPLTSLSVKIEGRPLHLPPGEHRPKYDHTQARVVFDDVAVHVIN
# Description: Inhibition of mushroom tyrosinase
# Tyrosinase [2] = target: T1, Tyrosinase; remark: listed apart in the source
# Description: Non-competitive inhibition of mushroom tyrosinase
# Tyrosinase [3] = target: T2, Tyrosinase (Homo sapiens, UniProt P14679); assay: Inhibition of tyrosinase in human HMV-2 melanoma cells after 5 mins by spectrophotometry; format: cell-based
# T2 sequence (P14679 whole entry): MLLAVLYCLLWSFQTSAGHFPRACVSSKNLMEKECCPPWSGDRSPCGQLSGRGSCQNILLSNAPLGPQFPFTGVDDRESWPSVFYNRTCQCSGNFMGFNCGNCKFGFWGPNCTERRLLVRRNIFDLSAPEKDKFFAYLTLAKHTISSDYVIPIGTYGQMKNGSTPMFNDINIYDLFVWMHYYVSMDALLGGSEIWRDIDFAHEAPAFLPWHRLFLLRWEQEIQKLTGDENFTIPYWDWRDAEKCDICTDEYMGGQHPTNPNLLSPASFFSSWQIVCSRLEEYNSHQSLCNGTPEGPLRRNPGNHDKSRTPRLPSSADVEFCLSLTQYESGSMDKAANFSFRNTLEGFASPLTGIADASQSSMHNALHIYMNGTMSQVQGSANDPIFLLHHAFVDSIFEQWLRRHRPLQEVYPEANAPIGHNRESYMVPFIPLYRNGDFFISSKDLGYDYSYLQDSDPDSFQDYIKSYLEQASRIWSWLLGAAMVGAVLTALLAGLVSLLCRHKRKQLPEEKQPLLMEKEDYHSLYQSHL
# [4] = target: T3, Tyrosinase (Homo sapiens) (UniProt P14679); assay: Ratio of kojic acid IC50 to compound IC50 for human tyrosinase
# T3 sequence (whole entry): T2 sequence (P14679 whole entry)
# [5] = target: T3, Tyrosinase (Homo sapiens); assay: Inhibition of tyrosinase in human G-361 cells at >200 uM incubated for 10 mins measured for 2 hrs by MBTH-based spectrophotometry; format: cell-based
# Tyrosinase [6] = target: T2, Tyrosinase
# Description: (§1) Competitive inhibition of tyrosinase in human G-361 cells incubated for 10 mins measured for 2 hrs by MBTH-based spectrophotometry
# [7] = target: T3, Tyrosinase (Homo sapiens); conditions: G-361
# Description: as §1
smiles,measurement,setting,value
O=c1cc(-c2ccc(O)c(O)c2)oc2c(O)c(O)ccc12,IC50,Tyrosinase [1],0.07 µM
CCCCC/C=C\C/C=C\CCCCCCCC(=O)OCC(COC(=O)CCCCCCC/C=C\C/C=C\CCCCC)OC(=O)CCCCCCC/C=C\C/C=C\CCCCC,IC50,Tyrosinase [2],8.4 µM
O=C(NCCc1c[nH]c2cc(O)ccc12)c1cc(O)cc(O)c1,IC50,Tyrosinase [3],9.1 µM
same,Ratio IC50,[4],34.1
CC(C)c1ccccc(=O)c1O [ALPHA-THUJAPLICIN],Ratio IC50,[4],< 0.57
same,inhibition,[5],Active
same,IC50,Tyrosinase [6],> 1000 µM
CC(C)c1ccc(O)c(=O)cc1 [GAMMA-THUJAPLICIN],Ratio IC50,[4],497
same,inhibition,[7],Dose-dependent effect
same,IC50,Tyrosinase [6],1.15 µM
CC(C)c1cccc(=O)c(O)c1 [HINOKITIOL],Ratio IC50,[4],63.6
same,inhibition,[7],Dose-dependent effect
same,IC50,Tyrosinase [6],8.98 µM
O=Cc1ccc(O)c(O)c1 [PROTOCATECHUALDEHYDE],IC50,Tyrosinase [1],2.9 µM
CCCCCCCC/C=C\CCCCCCCC(=O)OCC(COC(=O)CCCCCCC/C=C\CCCCCCCC)OC(=O)CCCCCCC/C=C\CCCCCCCC [TRIOLEIN],IC50,Tyrosinase [2],30 µM
